One test deals with IL-1β. It is filed as in vivo, mice.
The test system of test [1] is influenza virus CA04 (human H1N1). In words: Lung lesions / histopathological scoring in influenza virus-infected animal model. The test is classed as in vivo, mice. The conditions noted are these: for pathological scoring of lung lesions: score 0-4 per Table 2. The procedure:
Specifically, female BLAB/C mice aged 7 weeks were purchased and allowed to acclimate for one week before the experiments commenced. The experimental animals were housed under conditions of 22±2° C. temperature, 55±5% relative humidity, and a 12-hour light-dark cycle. Water was provided ad libitum, and sterilized feed was freely accessible.
Next, as shown in the schematic diagram of FIG. 1, influenza virus CA04 (human H1N1) was intranasally inoculated at a concentration of 2LD50 (30 μl/mouse), and the drug was administered by dividing into four groups as shown in [Table 1] below. The positive control group was administered dexamethasone, an anti-inflammatory drug, as a drug, and the experimental group was administered HY209 as a low dose (1 mpk) or a high dose (4 mpk) as a drug. The drug was administered intraperitoneally at a dose of 100 μl/mouse on the third day after virus infection. In addition, lung tissues were separated and stored after autopsy of each group on the 7th day (7 dpi), 10th day (10 dpi), and 11th day (11 dpi) of virus infection.
Specifically, each of the test groups of Example 1 was autopsied on the 7th day (7 dpi), 10th day (10 dpi), and 11th day (11 dpi) of viral infection, and then the lungs were separated. The separated lung lesions were visually confirmed (FIGS. 3a to 3c), and lung lesions were scored according to the pathological scoring criteria of Table 2 below, and then graphed (FIGS. 4a and 4b).

Where [2] appears, read: 7 dpi, 1 mpk intraperitoneally from DPI 3, virus infection group G1 2.8±0.84.
Setting [3] is: 11 dpi, 1 mpk intraperitoneally from DPI 3, virus infection group G1 4±0.

Read-outs that look alike come from different tables or passages of the source.

For `C[C@H](CCC(=O)NCCS(=O)(=O)O)[C@H]1CC[C@H]2[C@@H]3CC[C@@H]4C[C@H](O)CC[C@]4(C)[C@H]3C[C@H](O)[C@]12C` [HY209, Sodium taurodeoxycholate], in the test on IL-1β ([…], serum samples, HY209 1 mpk (G3) vs G1), the IL-1β levels result was “significant decrease”. Further, the “production of inflammatory cytokine IL-1β in the lungs” value in the test on IL-1β (mouse, in vivo) is “reduced”. Moreover, the “IL-1β levels in lung tissue samples” value in the test on IL-1β (mouse, in vivo, 1 mg/kg) is recorded as “significant decrease”; in the test with IL-1β (mouse, in vivo, 4 mg/kg) it was “significant decrease”. Besides, the “pathological scoring of lung lesions” value was determined as 2.6±0.55 in test [1] (setting [2]); 1.8±0.45 in test [1] (7 dpi, 4 mpk intraperitoneally from DPI 3, virus infection group G1 2.8±0.84); 2.8±0.84 in test [1] (setting [3]); 2.29±0.76 in test [1] (11 dpi, 4 mpk intraperitoneally from DPI 3, virus infection group G1 4±0). Moreover, the “reduction in pathological scores compared to the virus infection group (G1)” value is listed as “statistically significant reduction” in test [1] (7 dpi, 4 mpk (G4), P=0.046); “statistically significant reduction” in test [1] (11 dpi, 1 mpk (G2 P=0.002, G3 P=0.013)); “statistically significant reduction” in test [1] (11 dpi, 4 mpk (G4), P=0.0005). For the same compound, the “production of inflammatory cells in the lungs” value in test [1] (low (1 mpk) or high (4 mpk) dose groups compared to the virus infection group, summary statement) is “reduced”.
With `C[C@@H]1C[C@H]2[C@@H]3CCC4=CC(=O)C=C[C@]4(C)[C@@]3(F)[C@@H](O)C[C@]2(C)[C@@]1(O)C(=O)CO` [dexamethasone, reference compound], the results for the “pathological scoring of lung lesions” value in test [1] (setting [2]) and in test [1] (setting [3]) were 1.8±0.45 and 2.5±0.71, respectively.

Values taken from patent US20250000877A1, “COMPOSITION CONTAINING TAURODEOXYCHOLIC ACID OR PHARMACEUTICALLY ACCEPTABLE SALT THEREOF AS ACTIVE INGREDIENT FOR PREVENTING OR TREATING VIRAL INFECTIOUS DISEASES” (SHAPERON INC., priority 2021, published 2025).
